Assays:
[1] = molecular target: Programmed cell death protein 1/Programmed cell death 1 ligand 1 (Homo sapiens, UniProt Q9NZQ7); test: Inhibition of europium-labeled PD-1/biotinylated PD-L1 interaction (unknown origin) preincubated for 15 mins with PD-L1 followed by PD-1 addition and measured after 90 mins by TR-FRET assay; assay type: protein-complex assay
[2] = Antitumor activity against humanized mouse LLC-hPD-L1 cells implanted in hPD-1 knockin C57BL/6 mouse assessed as tumor growth inhibition at 10 mg/kg, ip administered for 12 days starting from day 7 post tumor implantation and measured every 2 days relative to control; assay type: functional; details: LLC-hPD-L1, 288 h, time 12 day, read-out: TGI

Programmed cell death protein 1/Programmed cell death 1 ligand 1, sequence (Q15116 whole entry): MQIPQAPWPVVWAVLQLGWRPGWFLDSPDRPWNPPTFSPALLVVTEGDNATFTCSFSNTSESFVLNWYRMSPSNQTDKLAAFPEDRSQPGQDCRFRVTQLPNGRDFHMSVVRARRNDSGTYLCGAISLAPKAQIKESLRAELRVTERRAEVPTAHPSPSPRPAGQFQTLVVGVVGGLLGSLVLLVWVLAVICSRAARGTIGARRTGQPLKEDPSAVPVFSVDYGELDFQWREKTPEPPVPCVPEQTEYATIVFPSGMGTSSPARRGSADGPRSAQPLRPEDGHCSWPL
Programmed cell death protein 1/Programmed cell death 1 ligand 1, sequence (Q9NZQ7 whole entry): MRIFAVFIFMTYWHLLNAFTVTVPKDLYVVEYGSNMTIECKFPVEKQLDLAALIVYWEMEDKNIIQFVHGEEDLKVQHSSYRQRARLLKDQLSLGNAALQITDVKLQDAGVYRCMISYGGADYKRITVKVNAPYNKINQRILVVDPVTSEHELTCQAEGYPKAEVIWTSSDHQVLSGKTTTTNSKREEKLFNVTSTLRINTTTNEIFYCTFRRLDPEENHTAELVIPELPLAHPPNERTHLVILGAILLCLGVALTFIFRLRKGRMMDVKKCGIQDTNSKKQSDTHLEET

Cc1c(-c2ccccc2)cccc1N1C(=O)c2ccc(CN3CCC[C@H]3C(N)=O)cc2C1=O
IC50 [1]: 2760 nM

CC(=O)COc1ccc2c(c1)C(=O)N(c1cccc(-c3ccccc3)c1C#N)C2=O
IC50 [1]: 249 nM

Cc1c(-c2ccccc2)cccc1N1C(=O)c2ccc(CNCCN)cc2C1=O
IC50 [1]: 912 nM

Cc1c(CN2C(=O)c3ccc(CN4CCCC[C@H]4C(=O)O)cc3C2=O)cccc1-c1ccccc1
IC50 [1]: 4630 nM

Cc1c(-c2ccccc2)cccc1N1C(=O)c2ccc(CN(C)CCO)cc2C1=O
IC50 [1]: 917 nM

Cc1c(-c2ccccc2)cccc1N1C(=O)c2ccc(CNCCO)cc2C1=O
IC50 [1]: 342 nM

Cc1c(-c2ccccc2)cccc1N1C(=O)c2cc(Br)c(CN3CCOCC3)cc2C1=O
IC50 [1]: > 10000 nM

Cc1c(-c2ccccc2)cccc1N1C(=O)c2ccc(OCc3ccccc3)cc2C1=O
IC50 [1]: > 10000 nM

COc1cc2c(cc1CN[C@@H](C)C(=O)O)C(=O)N(c1cccc(-c3ccccc3)c1C)C2=O
IC50 [1]: 16.9 nM

COc1cc2c(cc1CNCCO)C(=O)N(c1cccc(-c3ccccc3)c1C)C2=O
IC50 [1]: 15.6 nM

COc1cc2c(cc1CN1CCC[C@H]1C(=O)O)C(=O)N(c1cccc(-c3ccccc3)c1C)C2=O
IC50 [1]: 139 nM

Cc1c(-c2ccccc2)cccc1N1C(=O)c2ccc(OCc3ccc(C(C)C)cc3)cc2C1=O
IC50 [1]: > 10000 nM

CC(=O)NCCNCc1ccc2c(c1)C(=O)N(c1cccc(-c3ccccc3)c1C)C2=O
IC50 [1]: 590 nM

Cc1c(-c2ccccc2)cccc1N1C(=O)c2ccc(CN3CCCC[C@H]3C(=O)O)cc2C1=O
IC50 [1]: 2110 nM

N#Cc1cccc(COc2ccc3c(c2)C(=O)N(c2cccc(-c4ccccc4)c2C#N)C3=O)c1
IC50 [1]: 395 nM

CCOC(=O)[C@H](CO)NCc1ccc2c(c1)C(=O)N(c1cccc(-c3ccccc3)c1C)C2=O
IC50 [1]: 2380 nM

COc1nc(OCc2cccc(-c3ccccc3)c2C)ccc1CNCCNC(C)=O
inhibition in vivo at 10 mg/kg [2]: 39.8%

Cc1c(-c2ccccc2)cccc1N1C(=O)c2cc(Br)c(CN3CCCC[C@H]3C(=O)O)cc2C1=O
IC50 [1]: > 10000 nM

Cc1c(-c2ccccc2)cccc1N1C(=O)c2ccc(C(=O)N3CCOCC3)cc2C1=O
IC50 [1]: 1950 nM

N#Cc1ccc(COc2ccc3c(c2)C(=O)N(c2cccc(-c4ccccc4)c2C#N)C3=O)cc1
IC50 [1]: > 10000 nM

Cc1c(-c2ccccc2)cccc1N1C(=O)c2ccc(CN3CCC[C@H]3CO)cc2C1=O
IC50 [1]: 2210 nM

Cc1c(-c2ccccc2)cccc1N1C(=O)c2ccc(C(=O)N3CCN(C(C)C)CC3)cc2C1=O
IC50 [1]: 5130 nM

N#Cc1c(-c2ccc3c(c2)OCCO3)cccc1N1C(=O)c2ccc(C(=O)NCCO)cc2C1=O
IC50 [1]: 1170 nM

COc1cc2c(cc1CNCC(=O)O)C(=O)N(c1cccc(-c3ccccc3)c1C)C2=O
IC50 [1]: 35.9 nM

Cc1c(-c2ccc3c(c2)OCCO3)cccc1N1C(=O)c2ccc(C(=O)NCCO)cc2C1=O
IC50 [1]: 745 nM

Cc1c(CN2C(=O)c3ccc(CNCCO)cc3C2=O)cccc1-c1ccccc1
IC50 [1]: 3840 nM

Cc1c(-c2ccccc2)cccc1N1C(=O)c2ccc(CN3CCC[C@H]3C(=O)O)cc2C1=O
IC50 [1]: 1420 nM

Cc1c(-c2ccccc2)cccc1N1C(=O)c2ccc(C(=O)NCCO)cc2C1=O
IC50 [1]: 1890 nM

COc1cc2c(cc1CN[C@@H](CO)C(=O)OC(C)(C)C)C(=O)N(c1cccc(-c3ccccc3)c1C)C2=O
IC50 [1]: 296 nM

CC(=O)COc1ccc2c(c1)C(=O)N(c1cccc(-c3ccccc3)c1C)C2=O
IC50 [1]: 1060 nM

Cc1c(-c2ccccc2)cccc1N1C(=O)c2ccc(CNCCNS(C)(=O)=O)cc2C1=O
IC50 [1]: 968 nM

COc1cc2c(cc1CNCCNC(C)=O)C(=O)N(c1cccc(-c3ccccc3)c1C)C2=O
IC50 [1]: 46.2 nM

Cc1c(-c2ccccc2)cccc1N1C(=O)c2ccc(CNC3CCOCC3)cc2C1=O
IC50 [1]: 683 nM

Cc1c(-c2ccccc2)cccc1N1C(=O)c2ccc(CN[C@@H](CO)C(=O)O)cc2C1=O
IC50 [1]: 156 nM

Cc1c(-c2ccccc2)cccc1N1C(=O)c2ccc(CNCCNC(=O)OC(C)(C)C)cc2C1=O
IC50 [1]: 2400 nM

CC(=O)NCCNCc1ccc2c(c1)C(=O)N(Cc1cccc(-c3ccccc3)c1C)C2=O
IC50 [1]: 5410 nM

N#Cc1c(-c2ccccc2)cccc1N1C(=O)c2ccc(C(=O)NCCO)cc2C1=O
IC50 [1]: 3670 nM

Cc1c(-c2ccccc2)cccc1N1C(=O)c2ccc(OCc3cccc(C#N)c3)cc2C1=O
IC50 [1]: > 10000 nM

Cc1c(-c2ccccc2)cccc1N1C(=O)c2ccc(CN3CCOCC3)cc2C1=O
IC50 [1]: 2520 nM

N#Cc1c(-c2ccccc2)cccc1N1C(=O)c2ccc(C(=O)N3CCOCC3)cc2C1=O
IC50 [1]: 6690 nM

Source: ChEMBL document CHEMBL5316293, “Novel Small-Molecule PD-L1 Inhibitor Induces PD-L1 Internalization and Optimizes the Immune Microenvironment” (J Med Chem, 2023)
